Source: patent publication US20080318943A1, “Compounds and Uses Thereof - 848” (ASTRAZENECA AB, priority 2007, published 2008)

How the values were obtained:
[1] = target: T1, GABAA2 receptors (α2, β3, γ2 receptor subunits transfected into Sf9 cells) (Homo sapiens, UniProt P18507+P47869); assay: GABAA2 Binding Method ([3H]-Flunitrazepam displacement); conditions: [3H]-Flunitrazepam ~2 nM, α2β3γ2 Sf9 membranes, 1 hr at 4° C.
T1 construct: host or cells: Sf9 cells (membranes)
In short: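 Membranes from Sf9 cells expressing α2β3γ2 GABAA receptors incubated with ~2 nM (final) [3H]-flunitrazepam and test compound 1 h at 4 °C, then filtered on GF/B plates with cold-buffer washes. Flumazenil-defined controls; percent of control, IC50 and Ki calculated.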

GABAA receptor α1β2γ2 = target: T2, GABAA receptor α1β2γ2 (Homo sapiens, UniProt P14867+P18507); assay: Two-electrode voltage-clamp potentiation of GABA EC10 current in Xenopus oocytes, GABAA1; assay type: cell-based; conditions: percentage potentiation of GABA EC10 current divided by that of diazepam
T2 construct: expressed in transfected cells; host or cells: Xenopus laevis oocytes injected with cRNA
T2 sequence (P14867 28-456): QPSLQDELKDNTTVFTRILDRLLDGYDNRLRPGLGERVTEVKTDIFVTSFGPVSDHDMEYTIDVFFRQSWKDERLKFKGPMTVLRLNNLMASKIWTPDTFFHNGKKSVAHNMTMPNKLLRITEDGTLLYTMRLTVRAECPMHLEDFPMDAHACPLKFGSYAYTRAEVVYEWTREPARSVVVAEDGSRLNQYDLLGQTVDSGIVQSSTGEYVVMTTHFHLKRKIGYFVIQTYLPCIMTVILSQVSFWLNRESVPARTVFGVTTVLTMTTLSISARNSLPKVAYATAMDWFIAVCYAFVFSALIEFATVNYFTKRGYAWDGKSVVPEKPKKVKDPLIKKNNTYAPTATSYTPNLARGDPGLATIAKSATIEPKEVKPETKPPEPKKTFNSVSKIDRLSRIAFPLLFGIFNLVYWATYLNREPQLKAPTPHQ
T2 sequence (P47870 25-512 partner limits assumed): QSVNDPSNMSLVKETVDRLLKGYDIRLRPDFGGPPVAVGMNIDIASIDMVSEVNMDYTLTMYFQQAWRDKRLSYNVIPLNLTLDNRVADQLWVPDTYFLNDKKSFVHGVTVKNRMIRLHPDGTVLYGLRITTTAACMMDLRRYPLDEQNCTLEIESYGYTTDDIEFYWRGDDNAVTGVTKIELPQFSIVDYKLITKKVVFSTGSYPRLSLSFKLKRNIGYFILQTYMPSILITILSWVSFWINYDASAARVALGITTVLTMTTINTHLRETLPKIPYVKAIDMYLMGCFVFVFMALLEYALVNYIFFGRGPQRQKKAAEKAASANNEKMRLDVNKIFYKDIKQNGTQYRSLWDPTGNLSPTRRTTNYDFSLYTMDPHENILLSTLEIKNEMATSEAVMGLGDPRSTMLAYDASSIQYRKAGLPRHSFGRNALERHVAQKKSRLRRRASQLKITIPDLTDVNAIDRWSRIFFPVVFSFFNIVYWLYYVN
T2 sequence (P18507 40-475): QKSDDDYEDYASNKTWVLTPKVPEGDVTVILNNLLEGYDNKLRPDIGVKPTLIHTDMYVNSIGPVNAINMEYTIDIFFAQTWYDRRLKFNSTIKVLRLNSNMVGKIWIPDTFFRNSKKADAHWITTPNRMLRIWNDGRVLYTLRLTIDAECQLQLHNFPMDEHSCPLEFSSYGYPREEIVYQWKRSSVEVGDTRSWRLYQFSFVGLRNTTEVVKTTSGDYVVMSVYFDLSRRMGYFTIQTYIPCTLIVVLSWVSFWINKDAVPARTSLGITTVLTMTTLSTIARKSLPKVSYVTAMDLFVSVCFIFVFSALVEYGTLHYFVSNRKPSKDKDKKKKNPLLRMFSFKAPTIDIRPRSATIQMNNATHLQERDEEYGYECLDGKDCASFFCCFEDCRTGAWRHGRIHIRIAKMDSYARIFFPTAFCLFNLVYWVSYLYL
Method: GABAA receptors were heterologously expressed in Xenopus oocytes by injecting cRNA corresponding to human α1, α2, α3, α5, β2, P3 and γ2 subunits of the GABAA receptor genes. The specific subunit combinations (subtypes) were as follows: α1β2γ2, α2β3γ2, α3β3γ2, and α5β3γ2. The EC10 of GABA is approximated for each cell. Stability of GABA-mediated (EC10) current is established. Modulatory effect of test compound is determined and compared across subtypes. […] Thus, the assay can characterize modulatory effects and determine subtype selectivity of test compounds on major subtypes of GABAA receptors.
Xenopus laevis frogs (Xenopus I, Kalamazoo, Mich.) were anesthetized using 0.15% tricaine. Surgically removed ovarian lobes were teased out in OR2 solution (82 NaCl, 2.5 KCl, 5 HEPES, 1.5 NaH2PO4, 1 MgCl2, 0.1 EDTA, in mM, pH 7.4). The oocytes were defolliculated by incubation in 25 mL OR2 containing 0.2% collagenase 1A (SIGMA) two times for about 60 minutes on a platform shaker and stored in Leibovitz's L-15 medium. Oocytes were injected the following day in 0.5× Leibovitz's L-15 medium containing […] gentamycin, 10 units/ml penicillin, and […] streptomycin.
Capped cRNAs from the linearized vectors containing human α1, β2 and γ2 subunits of the GABAA receptor genes were mixed in ratio of […]. Oocytes were injected with 25-50 nL of mixed RNA with an appx molar ratio for α1, β2, and γ2 as 1:1:10. Oocyte recordings were done 2-10 days after injection. The same methods apply to subtypes derived from α2β3γ2, α3β3γ2, and α5β3γ2, except for 1:1:1 ratio was used for α, β, and γ subunits.
All measurements were done in a medium containing ND-96 (96 NaCl, 2 KCl, 1.8 CaCl2.2H2O, 1 MgCl2.6H2O, 5 HEPES, in mM, pH 7.5). Two-electrode voltage-clamp recording was carried out using OpusXpress amplifier (Axon Instruments, Foster City, Calif.), which allows simultaneous recording from 8 oocytes. Oocytes were impaled with two electrodes of 1-2 MΩ tip resistance when filled with 3M KCl. Recordings were begun when membrane potential became stable at potentials negative to −50-−60 mV. Membrane potential was held at −60 mV. […] The concentration of GABA corresponded to the EC10 value calculated for each oocyte. The modulator pulses started 30 s before the GABA pulse so as to allow preincubation with the modulator. A set of 3 pulses with just GABA without modulator was given prior to the modulator-containing pulses to define the baseline GABA response. Two oocytes per each experiment were dedicated to observe the effect of diazepam on GABA response to ensure the presence of γ2 subunit in the GABAA pentameric complex, which imparts diazepam sensitivity to the complex.
Current amplitude (i) was measured from baseline to peak using Clampfit (Axon Inst., Foster City, Calif.). Potentiation was calculated as percent change from the baseline GABA current flux 100×(imod/icontrol)−1) where imod=current mediated by modulator+GABA and icontrol=current mediated by GABA alone. […] Similarly, a value of −50% potentiation means the presence of modulator caused a 50% decrease in the control current. Various other data shown here were fitted and plotted using GraphPad Prism (GraphPad Software, Inc. San Diego, Calif.). The percentage potentiation was converted to relative potentiation by dividing it with percentage potentiation value obtained from the same assay with diazepam as a control.

T1 sequence (P47869 29-451): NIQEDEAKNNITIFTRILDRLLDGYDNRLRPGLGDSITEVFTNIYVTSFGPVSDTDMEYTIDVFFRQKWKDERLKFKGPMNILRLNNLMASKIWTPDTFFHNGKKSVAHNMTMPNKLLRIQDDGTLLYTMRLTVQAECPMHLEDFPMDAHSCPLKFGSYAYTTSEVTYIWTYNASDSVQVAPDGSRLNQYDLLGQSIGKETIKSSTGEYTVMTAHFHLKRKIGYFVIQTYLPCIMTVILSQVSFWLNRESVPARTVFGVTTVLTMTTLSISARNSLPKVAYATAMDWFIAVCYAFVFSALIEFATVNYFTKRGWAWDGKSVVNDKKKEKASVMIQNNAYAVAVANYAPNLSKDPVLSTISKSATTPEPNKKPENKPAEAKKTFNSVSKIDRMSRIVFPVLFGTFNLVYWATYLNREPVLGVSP
T1 sequence (P28472 26-473 partner): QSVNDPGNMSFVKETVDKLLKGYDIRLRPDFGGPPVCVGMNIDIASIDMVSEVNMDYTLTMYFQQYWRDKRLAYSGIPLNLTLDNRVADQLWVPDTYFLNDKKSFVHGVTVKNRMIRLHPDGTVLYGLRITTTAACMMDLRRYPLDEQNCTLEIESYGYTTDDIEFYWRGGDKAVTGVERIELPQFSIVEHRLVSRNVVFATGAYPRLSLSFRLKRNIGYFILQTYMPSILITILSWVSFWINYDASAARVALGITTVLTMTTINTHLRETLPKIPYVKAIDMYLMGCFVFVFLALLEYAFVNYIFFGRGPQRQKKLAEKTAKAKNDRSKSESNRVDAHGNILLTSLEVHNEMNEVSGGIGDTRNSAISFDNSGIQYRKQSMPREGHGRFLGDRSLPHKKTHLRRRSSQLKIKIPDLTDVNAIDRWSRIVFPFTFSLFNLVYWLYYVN
T1 sequence (P18507 40-475): as the sequence (P18507 40-475) above

SMILES	Ki [1] [nM]	Relative Potentiation for GABAA1 (GABAA receptor α1β2γ2)
CCCN1Cc2nc3c(-c4cnc(OC)nc4OC)c(F)ccc3c(N)c2C1=O [9-amino-5-(2,4-dimethoxypyrimidin-5-yl)-6-fluoro-2-propyl-2,3-dihydro-1H-pyrrolo[3,4-b]quinolin-1-one]	8.89	0.22
COc1ccc(CN2Cc3nc4c(-c5cc(F)c(OC)cc5F)cccc4c(N)c3C2=O)cc1 [9-amino-5-(2,5-difluoro-4-methoxyphenyl)-2-(4-methoxybenzyl)-2,3-dihydro-1H-pyrrolo[3,4-b]quinolin-1-one]	48.4	0.29
COc1cccc(CN2Cc3nc4c(-c5cc(OC)ccc5OC)cccc4c(N)c3C2=O)c1 [9-amino-5-(2,5-dimethoxyphenyl)-2-(3-methoxybenzyl)-2,3-dihydro-1H-pyrrolo[3,4-b]quinolin-1-one]	26.9	0.25
CCCN1Cc2nc3c(-c4c(F)cc(OC)cc4F)cccc3c(N)c2C1=O [9-amino-5-(2,6-difluoro-4-methoxyphenyl)-2-propyl-2,3-dihydro-1H-pyrrolo[3,4-b]quinolin-1-one]	12.2	0.16
Cc1ccc(-c2cccc3c(N)c4c(nc23)CN(C2CC2)C4=O)c(Cl)n1 [9-amino-5-(2-chloro-6-methylpyridin-3-yl)-2-cyclopropyl-2,3-dihydro-1H-pyrrolo[3,4-b]quinolin-1-one]	7.87	0.4
CCCN1Cc2nc3c(-c4cccnc4OCC)cccc3c(N)c2C1=O [9-amino-5-(2-ethoxypyridin-3-yl)-2-propyl-2,3-dihydro-1H-pyrrolo[3,4-b]quinolin-1-one]	15	0.56
COc1ccc(CN2Cc3nc4c(-c5cccc(OC)c5F)cccc4c(N)c3C2=O)cc1 [9-amino-5-(2-fluoro-3-methoxyphenyl)-2-(4-methoxybenzyl)-2,3-dihydro-1H-pyrrolo[3,4-b]quinolin-1-one]	8.03	0.36
COc1ccc([C@@H](C)N2Cc3nc4c(-c5c(F)cccc5OC)cccc4c(N)c3C2=O)cc1 [9-amino-5-(2-fluoro-6-methoxyphenyl)-2-((R)-1-(4-methoxyphenyl)ethyl)-2,3-dihydro-1H-pyrrolo[3,4-b]quinolin-1-one]	20.9	−0.008
CCCN1Cc2nc3c(-c4ccc(C)nc4OC)cccc3c(N)c2C1=O [9-amino-5-(2-methoxy-6-methylpyridin-3-yl)-2-propyl-2,3-dihydro-1H-pyrrolo[3,4-b]quinolin-1-one]	24	1.1
CCCN1Cc2nc3c(-c4ccc(OC)c(OC)c4)cccc3c(N)c2C1=O [9-amino-5-(3,4-dimethoxyphenyl)-2-propyl-2,3-dihydro-1H-pyrrolo[3,4-b]quinolin-1-one]	12.3	1.1
COc1ccc(CN2Cc3nc4c(-c5cc(F)cc(F)c5)cccc4c(N)c3C2=O)cc1OC [9-amino-5-(3,5-difluorophenyl)-2-(3,4-dimethoxybenzyl)-2,3-dihydro-1H-pyrrolo[3,4-b]quinolin-1-one]	15.3	0.24
CCCN1Cc2nc3c(-c4cc(OC)cc(OC)c4)cccc3c(N)c2C1=O [9-amino-5-(3,5-dimethoxyphenyl)-2-propyl-2,3-dihydro-1H-pyrrolo[3,4-b]quinolin-1-one]	46.7	0.6
CCN1Cc2nc3c(-c4cc(C)cc(C)c4)cccc3c(N)c2C1=O [9-amino-5-(3,5-dimethylphenyl)-2-ethyl-2,3-dihydro-1H-pyrrolo[3,4-b]quinolin-1-one]	14.2	0.34
CCCN1Cc2nc3c(-c4cccc(N(C)C)c4)cccc3c(N)c2C1=O [9-amino-5-(3-(dimethylamino)phenyl)-2-propyl-2,3-dihydro-1H-pyrrolo[3,4-b]quinolin-1-one]	37.4	0.27
COc1ccc(CN2Cc3nc4c(-c5ccc(F)cc5OC)cccc4c(N)c3C2=O)cc1 [9-amino-5-(4-fluoro-2-methoxyphenyl)-2-(4-methoxybenzyl)-2,3-dihydro-1H-pyrrolo[3,4-b]quinolin-1-one]	31.2	0.22
CCCN1Cc2nc3c(-c4ccc(OC)cc4C(F)(F)F)cccc3c(N)c2C1=O [9-amino-5-(4-methoxy-2-(trifluoromethyl)phenyl)-2-propyl-2,3-dihydro-1H-pyrrolo[3,4-b]quinolin-1-one]	10.4	0.25

Now from value to compound:

Ki [1] [nM]	Relative Potentiation for GABAA1 (GABAA receptor α1β2γ2)	SMILES
75.3	0.21	CCCN1Cc2nc3c(-c4ccc(F)nc4F)cccc3c(N)c2C1=O [9-amino-5-(2,6-difluoropyridin-3-yl)-2-propyl-2,3-dihydro-1H-pyrrolo[3,4-b]quinolin-1-one]
16.3	0.38	CCCN1Cc2nc3c(-c4cc(F)cnc4Cl)cccc3c(N)c2C1=O [9-amino-5-(2-chloro-5-fluoropyridin-3-yl)-2-propyl-2,3-dihydro-1H-pyrrolo[3,4-b]quinolin-1-one]
9.72	0.45	CCCN1Cc2nc3c(-c4cc(OC)cnc4Cl)cccc3c(N)c2C1=O [9-amino-5-(2-chloro-5-methoxypyridin-3-yl)-2-propyl-2,3-dihydro-1H-pyrrolo[3,4-b]quinolin-1-one]
4.82	0.35	CCCN1Cc2nc3c(-c4ccccc4Cl)cccc3c(N)c2C1=O [9-amino-5-(2-chlorophenyl)-2-propyl-2,3-dihydro-1H-pyrrolo[3,4-b]quinolin-1-one]
11.5	0.2	CCCN1Cc2nc3c(-c4cccc(OC)c4F)cccc3c(N)c2C1=O [9-amino-5-(2-fluoro-3-methoxyphenyl)-2-propyl-2,3-dihydro-1H-pyrrolo[3,4-b]quinolin-1-one]
12.8	0.12	CCCN1Cc2nc3c(-c4ccc(OC)cc4F)cccc3c(N)c2C1=O [9-amino-5-(2-fluoro-4-methoxyphenyl)-2-propyl-2,3-dihydro-1H-pyrrolo[3,4-b]quinolin-1-one]
24	0.55	CCCN1Cc2nc3c(-c4cc(C(F)(F)F)ccc4F)cccc3c(N)c2C1=O [9-amino-5-(2-fluoro-5-(trifluoromethyl)phenyl)-2-propyl-2,3-dihydro-1H-pyrrolo[3,4-b]quinolin-1-one]
8.08	0.6	CCCN1Cc2nc3c(-c4cc(F)ncc4OC)cccc3c(N)c2C1=O [9-amino-5-(2-fluoro-5-methoxypyridin-4-yl)-2-propyl-2,3-dihydro-1H-pyrrolo[3,4-b]quinolin-1-one]
6.77	0.27	CCCN1Cc2nc3c(-c4cc(C)ccc4F)cccc3c(N)c2C1=O [9-amino-5-(2-fluoro-5-methylphenyl)-2-propyl-2,3-dihydro-1H-pyrrolo[3,4-b]quinolin-1-one]
7.55	0.33	CCCN1Cc2nc3c(-c4cc(C)cnc4F)cccc3c(N)c2C1=O [9-amino-5-(2-fluoro-5-methylpyridin-3-yl)-2-propyl-2,3-dihydro-1H-pyrrolo[3,4-b]quinolin-1-one]
